Legend:
EmrE [1] = molecular target: T1, EmrE (Escherichia coli, UniProt P23895); test: [3H]TPP+ radioligand competition; exchange in 2-D crystals and cryo-EM projection map; assay type: binding
T1 construct: 6xHis-tagged EmrE, purified, detergent (DDM)-solubilized

EmrE [2] = molecular target: T1, EmrE; test: [3H]TPP+ radioligand competition; cryo-EM projection structure of 2-D co-crystals at […] Å; assay type: binding
EmrE [3] = molecular target: T1, EmrE; test: [3H]TPP+ radioligand binding to solubilized EmrE and 2-D crystals; settings: cited from earlier work

T1 sequence (P23895 whole entry): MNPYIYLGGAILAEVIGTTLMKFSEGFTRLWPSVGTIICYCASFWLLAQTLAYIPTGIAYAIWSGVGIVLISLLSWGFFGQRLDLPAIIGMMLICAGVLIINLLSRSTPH

Compound | Ki (EmrE [1]) [nM] | other results
CC[N+](C)(CC)CCC[n+]1c(-c2ccccc2)c2cc(N)ccc2c2ccc(N)cc21 [PP^2+, propidium] | 19 ± 4 | –
Cc1cc(N)c2ccccc2[n+]1CCCCCCCCCC[n+]1c(C)cc(N)c2ccccc21 [DQ^2+, dequalinium] | 83 ± 9 | –
CC[n+]1c(-c2ccccc2)c2cc(N)ccc2c2ccc(N)cc21 [Eth^+, ethidium] | – | Ki (EmrE [2]): 1000 ± 900 nM
c1ccc([P+](c2ccccc2)(c2ccccc2)c2ccccc2)cc1 [TPP^+, tetraphenylphosphonium] | – | Kd (EmrE [3]): 2.4 nM

— article PMC2726284, “Electron Crystallography Reveals Plasticity within the Drug Binding Site of the Small Multidrug Transporter EmrE” (Journal of Molecular Biology, 2008)
